# pIC50: −log10 of the molar value.
# Target: T1, human Cot/Tpl2 kinase (Homo sapiens, UniProt P41279)
# T1 construct: human Cot/Tpl2 kinase construct encoding residues 30-398; 6His (N); made in house; host or cells: Sf9 insect cells, baculovirus system (BD Biosciences)
# Assay: Tpl2/Cot kinase assay: GST-MEK1 phosphorylation detected by ELISA (DELFIA Eu)
# Type: biochemical
# Settings: 0.4 nM Tpl2, 35 nM GST-MEK1, 50 uM ATP, 1 h at 30° C.
# In short: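 Substrate phosphorylation (GST-MEK1 Ser217/221) quantified by DELFIA europium ELISA, yielding IC50 values. Reaction: 1 h at 30° C, pH 7.2 MOPS buffer, 50 uM ATP, 35 nM GST-MEK1, 0.4 nM monomeric His-Tpl2 purified from Sf9 cells, compounds at 1% final DMSO; stopped with EDTA.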
# T1 sequence (P41279 30-398): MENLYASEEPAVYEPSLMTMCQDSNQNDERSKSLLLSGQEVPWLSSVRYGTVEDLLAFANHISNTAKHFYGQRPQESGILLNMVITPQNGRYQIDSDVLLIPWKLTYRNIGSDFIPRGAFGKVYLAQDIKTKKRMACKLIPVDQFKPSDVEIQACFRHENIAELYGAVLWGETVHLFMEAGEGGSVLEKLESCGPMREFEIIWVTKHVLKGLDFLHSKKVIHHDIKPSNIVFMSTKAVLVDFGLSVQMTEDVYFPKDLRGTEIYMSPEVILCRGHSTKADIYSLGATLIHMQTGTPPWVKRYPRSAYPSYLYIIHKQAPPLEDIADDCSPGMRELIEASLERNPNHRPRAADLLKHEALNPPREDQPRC
row,Structure (SMILES),pIC50
1,"CN1CCN(c2cc3ncc(C#N)c(Nc4ccc(F)c(Cl)c4)c3cc2NCc2cnc[nH]2)CC1 [Example 161, 6-((1H-imidazol-5-yl)methylamino)-4-(3-chloro-4-fluorophenylamino)-7-(4-methylpiperazin-1-yl)quinoline-3-carbonitrile]",< 4.40
2,"CN(C)CCSc1cc2ncc(C#N)c(Nc3ccc(F)c(Cl)c3)c2cc1NCc1cnc[nH]1 [Example 163, 6-((1H-imidazol-5-yl)methylamino)-4-(3-chloro-4-fluorophenylamino)-7-(2-(dimethylamino)ethylthio)quinoline-3-carbonitrile]",6.82
3,"CN(C)CCN1CCN(c2cc3ncc(C#N)c(Nc4ccc(F)c(Cl)c4)c3cc2NCc2cnc[nH]2)CC1 [Example 164, 6-((1H-imidazol-5-yl)methylamino)-4-(3-chloro-4-fluorophenylamino)-7-(4-(2-(dimethylamino)ethyl)piperazin-1-yl)quinoline-3-carbonitrile]",< 4.40
4,"N#Cc1cnc2cc(OCCBr)c(NCc3cnc[nH]3)cc2c1Nc1ccc(F)c(Cl)c1 [Example 166, 6-((1H-imidazol-5-yl)methylamino)-7-(2-bromoethoxy)-4-(3-chloro-4-fluorophenylamino)quinoline-3-carbonitrile]",< 4.40
5,"N#Cc1cnc2c(Br)cc(NCc3nn[nH]c3-c3ccc(F)cc3)cc2c1Nc1ccc(F)c(Cl)c1 [Example 170, 8-bromo-4-[(3-chloro-4-fluorophenyl)amino]-6-({[5-(4-fluorophenyl)-1H-1,2,3-triazol-4-yl]methyl}amino)quinoline-3-carbonitrile]",6.17
6,"N#Cc1cnc2c(Cl)cc(NCc3cnc[nH]3)cc2c1Nc1ccc(F)c(Cl)c1 [Example 177, 6-((1H-imidazol-5-yl)methylamino)-8-chloro-4-(3-chloro-4-fluorophenylamino)quinoline-3-carbonitrile]",8.00
7,"CC(C)(C)S(=O)(=O)Nc1c(C#N)cnc2ccc(NCc3cnc[nH]3)cc12 [Example 180, N-(6-((1H-imidazol-5-yl)methylamino)-3-cyanoquinolin-4-yl)-2-methylpropane-2-sulfonamide]",< 4.40
8,"N#Cc1cnc2c(O)cc(NCc3cnc[nH]3)cc2c1Nc1ccc(F)c(Cl)c1 [Example 181, 6-((1H-imidazol-5-yl)methylamino)-4-(3-chloro-4-fluorophenylamino) 8-hydroxyquinoline-3-carbonitrile]",4.95
9,"Cc1c(CNc2cc(Cl)c3ncc(C#N)c(Nc4ccc(F)c(Cl)c4)c3c2)ncn1C [Example 183, 8-chloro-4-(3-chloro-4-fluorophenylamino)-6-((1,5-dimethyl-1H-imidazol-4-yl)methylamino)quinoline-3-carbonitrile]",7.66
10,"N#Cc1cnc2c(Cl)cc(NCc3cc4n(n3)CCO4)cc2c1Nc1ccc(F)c(Cl)c1 [Example 188, 8-chloro-4-(3-chloro-4-fluorophenylamino)-6-((2,3-dihydropyrazolo[5,1-b]oxazol-6-yl)methylamino)quinoline-3-carbonitrile]",7.23
11,"N#Cc1cnc2c(Cl)cc(NCc3cc4n(n3)CCC4)cc2c1Nc1ccc(F)c(Cl)c1 [Example 189, 8-chloro-4-(3-chloro-4-fluorophenylamino)-6-((5,6-dihydro-4H-pyrrolo[1,2-b]pyrazol-2-yl)methylamino)quinoline-3-carbonitrile]",7.00
12,"CCc1nc(CNc2cc(Cl)c3ncc(C#N)c(Nc4ccc(F)c(Cl)c4)c3c2)c(C)[nH]1 [Example 190, 8-chloro-4-(3-chloro-4-fluorophenylamino)-6-((2-ethyl-5-methyl-1H-imidazol-4-yl)methylamino)quinoline-3-carbonitrile]",6.49
13,"Cc1nc(CNc2cc(Cl)c3ncc(C#N)c(Nc4ccc(F)c(Cl)c4)c3c2)cn1CC(N)=O [Example 191, 2-(4-((8-chloro-4-(3-chloro-4-fluorophenylamino)-3-cyanoquinolin-6-ylamino)methyl)-2-methyl-1H-imidazol-1-yl)acetamide]",7.19
14,"CCc1nc(CNc2cc(Cl)c3ncc(C#N)c(Nc4ccc(F)c(Cl)c4)c3c2)cn1CC(N)=O [Example 193, 2-(4-((8-chloro-4-(3-chloro-4-fluorophenylamino)-3-cyanoquinolin-6-ylamino)methyl)-2-ethyl-1H-imidazol-1-yl)acetamide]",6.39
15,"CCc1nc(CNc2cc(Cl)c3ncc(C#N)c(Nc4ccc(F)c(Cl)c4)c3c2)c(C)n1C(=O)OC(C)(C)C [Example 194, tert-butyl 4-((8-chloro-4-(3-chloro-4-fluorophenylamino)-3-cyanoquinolin-6-ylamino)methyl)-2-ethyl-5-methyl-1H-imidazole-1-carboxylate]",5.01

# Continued, values first:
row,pIC50,Structure (SMILES)
1,< 4.40,"CCOc1cc2ncc(C#N)c(Nc3ccc(F)c(Cl)c3)c2cc1NCc1cnc[nH]1 [Example 165, 6-((1H-imidazol-5-yl)methylamino)-4-(3-chloro-4-fluorophenylamino)-7-ethoxyquinoline-3-carbonitrile]"
2,7.55,"CS(=O)(=O)c1cccc(CNc2ccc3ncc(C#N)c(Nc4ccc(F)c(Cl)c4)c3c2)c1 [Example 167, 6-(3-(methylsulfonyl)benzylamino)-4-(3-chloro-4-fluorophenylamino)quinoline-3-carbonitrile]"
3,6.82,"N#Cc1cnc2ccc(NCc3cccc(S(N)(=O)=O)c3)cc2c1Nc1ccc(F)c(Cl)c1 [Example 168, 3-((4-(3-chloro-4-fluorophenylamino)-3-cyanoquinolin-6-ylamino)methyl)benzenesulfonamide]"
4,7.68,"N#Cc1cnc2ccc(NCc3cnc[nH]3)cc2c1Nc1cccc(Br)c1 [Example 169, 6-((1H-imidazol-5-yl)methylamino)-4-(3-bromophenylamino)quinoline-3-carbonitrile]"
5,7.85,"Cn1ccnc1CNc1ccc2ncc(C#N)c(Nc3ccc(F)c(Cl)c3)c2c1 [Example 171, 4-(3-chloro-4-fluorophenylamino)-6-((1-methyl-1H-imidazol-2-yl)methylamino)quinoline-3-carbonitrile]"
6,7.08,"C[C@@H](Nc1ccc2ncc(C#N)c(Nc3ccc(F)c(Cl)c3)c2c1)c1ccccn1 [Example 172, (R)-4-(3-chloro-4-fluorophenylamino)-6-(1-(pyridin-2-yl)ethylamino)quinoline-3-carbonitrile]"
7,< 4.40,"C[C@H](Nc1ccc2ncc(C#N)c(Nc3ccc(F)c(Cl)c3)c2c1)c1ccccn1 [Example 173, (S)-4-(3-chloro-4-fluorophenylamino)-6-(1-(pyridin-2-yl)ethylamino)quinoline-3-carbonitrile]"
8,5.46,"CCOC(=O)CNc1ccc2ncc(C#N)c(Nc3ccc(F)c(Cl)c3)c2c1 [Example 174, Ethyl 2-(4-(3-chloro-4-fluorophenylamino)-3-cyanoquinolin-6-ylamino)acetate]"
9,6.51,"N#Cc1cnc2ccc(NCC(=O)O)cc2c1Nc1ccc(F)c(Cl)c1 [Example 175, 2-(4-(3-chloro-4-fluorophenylamino)-3-cyanoquinolin-6-ylamino)acetic acid]"
10,5.37,"N#Cc1cnc2ccc(NCC(N)=O)cc2c1Nc1ccc(F)c(Cl)c1 [Example 176, 2-(4-(3-chloro-4-fluorophenylamino)-3-cyanoquinolin-6-ylamino)acetamide]"
11,7.80,"N#Cc1cnc2c(Cl)cc(NCc3cccnc3)cc2c1Nc1ccc(F)c(Cl)c1 [Example 178, 8-chloro-4-(3-chloro-4-fluorophenylamino)-6-(pyridin-3-ylmethylamino)quinoline-3-carbonitrile]"
12,5.41,"CC(Nc1ccc2ncc(C#N)c(Nc3ccc(F)c(Cl)c3)c2c1)c1cnc[nH]1 (stereo not shown) [Example 179, 6-(1-(1H-imidazol-5-yl)ethylamino)-4-(3-chloro-4-fluorophenylamino)quinoline-3-carbonitrile]"
13,7.74,"N#Cc1cnc2c(Cl)cc(NCc3cccc[n+]3[O-])cc2c1Nc1ccc(F)c(Cl)c1 [Example 182, 8-chloro-4-[(3-chloro-4-fluorophenyl)amino]-6-{[(1-oxidopyridin-2-yl)methyl]amino}quinoline-3-carbonitrile]"
14,6.96,"CS(=O)(=O)c1ccc(CNc2cc(Cl)c3ncc(C#N)c(Nc4ccc(F)c(Cl)c4)c3c2)cc1 [Example 184, 6-(4-(methylsulfonyl)benzylamino)-8-chloro-4-(3-chloro-4-fluorophenylamino)quinoline-3-carbonitrile]"
15,7.33,"CS(=O)(=O)c1cccc(CNc2cc(Cl)c3ncc(C#N)c(Nc4ccc(F)c(Cl)c4)c3c2)c1 [Example 185, 6-(3-(methylsulfonyl)benzylamino)-8-chloro-4-(3-chloro-4-fluorophenylamino)quinoline-3-carbonitrile]"
16,7.35,"N#Cc1cnc2c(Cl)cc(NCc3ccc(S(N)(=O)=O)cc3)cc2c1Nc1ccc(F)c(Cl)c1 [Example 186, 4-((8-chloro-4-(3-chloro-4-fluorophenylamino)-3-cyanoquinolin-6-ylamino)methyl)benzenesulfonamide]"
17,6.89,"N#Cc1cnc2c(Cl)cc(NCc3cn4ccccc4n3)cc2c1Nc1ccc(F)c(Cl)c1 [Example 187, 6-((H-imidazo[1,2-a]pyridin-2-yl)methylamino)-8-chloro-4-(3-chloro-4-fluorophenylamino)quinoline-3-carbonitrile]"
18,6.77,"Cc1cccc(CNc2cc(Cl)c3ncc(C#N)c(Nc4ccc(F)c(Cl)c4)c3c2)n1 [Example 192, 8-chloro-4-(3-chloro-4-fluorophenylamino)-6-((6-methylpyridin-2-yl)methylamino)quinoline-3-carbonitrile]"
19,7.49,"Cc1cccc(CNc2cc(Cl)c3ncc(C#N)c(Nc4ccc(F)c(Cl)c4)c3c2)[n+]1[O-] [Example 195, 8-chloro-4-[(3-chloro-4-fluorophenyl)amino]-6-{[(6-methyl-1-oxidopyridin-2-yl)methyl]amino}quinoline-3-carbonitrile]"
